In the C3SDB collision cross section collection:
Blank lines part the entries; values can stand above or below the molecule they belong to.

What was measured:
[1] = instrument: TW, calibrated with phosphatidylcholines (ESI+) and phosphatidylethanolamines (ESI-)
[2] = instrument: DT, single field, calibrated with Agilent tune mix (Agilent)
[3] = instrument: DT, stepped-field

collision cross section (N2) ([1]; [M+H]+): 255.1 Å²
SMILES: CCCCCCCCCCCCCCCC(=O)N[C@@H](CO)[C@H](O)CCCCCCCCCCCCCCC [Cer(d18:0/16:0)]

collision cross section (N2) ([1]; [M+H]+): 261.3 Å²
SMILES: CCCCCCCCCCCCC=CC[C@@H](O)[C@H](CO)NC(=O)CCCCCCCCCCCCCCCCC [Cer(d18:0/18:1)]

collision cross section (N2) ([1]; [M+H]+): 274.1 Å²
SMILES: CCCCCCCCCCCCCCCCCCCCCC(=O)N[C@@H](CO)[C@H](O)CCCCCCCCCCCCCCC [Cer(d18:0/22:0)]

collision cross section (N2) ([1]; [M+H]+): 279.6 Å²
SMILES: CCCCCCCCCCCCCCCCCCCCCCCC(=O)N[C@@H](CO)[C@H](O)CCCCCCCCCCCCCCC [Cer(d18:0/24:0)]

collision cross section (N2) ([1]; [M+H]+): 284.5 Å²
SMILES: CCCCCCCCCCCCC=CC[C@@H](O)[C@H](CO)NC(=O)CCCCCCCCCCCCCCCCCCCCCCCCC [Cer(d18:0/26:1)]

collision cross section (N2) ([1]; [M-H]-): 243.7 Å²
SMILES: CCCCCCCCCCCCC=CC[C@@H](O)[C@H](CO)NC(=O)CCCCCCCCCCCCCCC [Cer(d18:1/16:0)]

collision cross section (N2) ([1]; [M+H]+): 261.2 Å²
collision cross section (N2) ([1]; [M-H]-): 249.7 Å²
SMILES: CCCCCCCCCCCCC=CC[C@@H](O)[C@H](CO)NC(=O)CCCCCCCCCCCCCCCCC [Cer(d18:1/18:0)]

collision cross section (N2) ([1]; [M+H]+): 284.4 Å²
SMILES: CCCCCCCCCCCCC=CC[C@@H](O)[C@H](CO)NC(=O)CCCCCCCCCCCCCCCCCCCCCCCCC [Cer(d18:1/26:0)]

collision cross section (N2) ([1]; [M+H-H2O]+): 263.5 Å²
SMILES: CCCCC/C=C\C/C=C\CCCCCCCCCCCC(=O)O[C@@H](CO)COC(=O)CCCCCCCCCCCCC [DG(18:1/18:1)]

collision cross section (N2) ([1]; [M+H]+): 220.8 Å²
collision cross section (N2) ([1]; [M+Na]+): 224.8 Å²
collision cross section (N2) ([1]; [M-H]-): 212.9 Å²
collision cross section (N2) ([2]; [M+Na]+): 227.5 Å²
collision cross section (N2) ([2]; [M-H]-): 214.1 Å²
SMILES: CCCCCCCCCCCCCCCCCC(=O)O[C@H](CO)COP(=O)(O)OCCN [LPE(18:0)]

collision cross section (N2) ([1]; [M+H]+): 215.6 Å²
collision cross section (N2) ([1]; [M+Na]+): 214.7 Å²
collision cross section (N2) ([1]; [M-H]-): 204.7 Å²
SMILES: CCCCCCCCCCCCCC/C=C\OC[C@@H](O)COP(=O)([O-])OCC[NH3+] [LPE(p16:0)]

collision cross section (N2) ([1]; [M+H]+): 217.2 Å²
collision cross section (N2) ([1]; [M+Na]+): 216.5 Å²
collision cross section (N2) ([1]; [M-H]-): 208.9 Å²
SMILES: CCCCCCCC/C=C\CCCCCC/C=C\OC[C@@H](O)COP(=O)([O-])OCC[NH3+] [LPE(p18:1)]

collision cross section (N2) ([1]; [M-H]-): 254.7 Å²
collision cross section (N2) ([2]; [M+H]+): 271 Å²
collision cross section (N2) ([2]; [M+NH4]+): 271.2 Å²
collision cross section (N2) ([2]; [M+Na]+): 268.5 Å²
collision cross section (N2) ([2]; [M-H]-): 255.6 Å²
SMILES: CCCCCCCC/C=C\CCCCCCCCCC(=O)O[C@H](COC(=O)CCCCCCCCCCCCC)COP(=O)(O)O [PA(34:1)]

collision cross section (N2) ([1]; [M-H]-): 253.4 Å²
collision cross section (N2) ([2]; [M+H]+): 267.5 Å²
collision cross section (N2) ([2]; [M+NH4]+): 267.8 Å²
collision cross section (N2) ([2]; [M+Na]+): 266.5 Å²
SMILES: CCCCC/C=C\C/C=C\CCCCCCCC(=O)O[C@H](COC(=O)CCCCCCCCCCCCCCC)COP(=O)(O)O [PA(34:2)]

collision cross section (N2) ([1]; [M-H]-): 261.6 Å²
collision cross section (N2) ([2]; [M+NH4]+): 277.2 Å²
SMILES: CC/C=C\C/C=C\C/C=C\C/C=C\CCCCC(=O)OC[C@H](COP(=O)(O)O)OC(=O)CCCCCCCCC/C=C\CCCCCCCC [PA(38:5)]

collision cross section (N2) ([1]; [M-H]-): 260.9 Å²
SMILES: CC/C=C\C/C=C\C/C=C\C/C=C\C/C=C\C/C=C\CCC(=O)O[C@H](COC(=O)CCCCCCCCCCCCCCC)COP(=O)(O)O [PA(38:6)]

collision cross section (N2) ([1]; [M+H]+): 293.7 Å²
collision cross section (N2) ([2]; [M+H]+): 297 Å²
SMILES: CCCCCC/C=C\CCCCCCCCCCCC(=O)O[C@H](COC(=O)CCCCCCCCC/C=C\CCCCCC)COP(=O)([O-])OCC[N+](C)(C)C [PC(38:2)]

collision cross section (N2) ([1]; [M+CH3COO]-): 296.3 Å²
collision cross section (N2) ([1]; [M+H]+): 291.2 Å²
collision cross section (N2) ([2]; [M+HCOO]-): 294.4 Å²
collision cross section (N2) ([2]; [M+Na]+): 298.5 Å²
SMILES: CCCCC/C=C\C/C=C\C/C=C\CCCCC(=O)OC[C@H](COP(=O)([O-])OCC[N+](C)(C)C)OC(=O)CCCCCCCCC/C=C\CCCCCCCC [PC(38:4)]

collision cross section (N2) ([1]; [M+H]+): 293.3 Å²
collision cross section (N2) ([2]; [M+H]+): 296.2 Å²
SMILES: CCCCC/C=C\C/C=C\C/C=C\C/C=C\CCCCCC(=O)O[C@H](COC(=O)CCCCCCC/C=C\C/C=C\CCCCC)COP(=O)([O-])OCC[N+](C)(C)C [PC(40:6)]

collision cross section (N2) ([1]; [M+H]+): 273.7 Å²
collision cross section (N2) ([1]; [M-H]-): 266.7 Å²
collision cross section (N2) ([2]; [M+H]+): 274.9 Å²
collision cross section (N2) ([2]; [M+Na]+): 279.9 Å²
collision cross section (N2) ([2]; [M-H]-): 266.1 Å²
SMILES: CCCC/C=C\C/C=C\CCCCCCCC(=O)OC[C@H](COP(=O)(O)OCCN)OC(=O)CCCCCCC/C=C\CCCCCCCCC [PE(36:3)]

collision cross section (N2) ([1]; [M+H]+): 291.7 Å²
SMILES: CCCCC/C=C\C/C=C\C/C=C\C/C=C\CCCCCC(=O)O[C@H](COC(=O)CCCCCC/C=C\C/C=C\C/C=C\CCCCC)COP(=O)(O)OCCN [PE(42:7)]

collision cross section (N2) ([1]; [M+Na]+): 275.5 Å²
collision cross section (N2) ([1]; [M-H]-): 264.6 Å²
SMILES: CC/C=C\C/C=C\C/C=C\C/C=C\CCCCC(=O)O[C@H](CO/C=C\CCCCCCCCCCCCCCCC)COP(=O)(O)OCCN [PE(p36:4)]

collision cross section (N2) ([1]; [M+H]+): 284 Å²
collision cross section (N2) ([1]; [M-H]-): 272.7 Å²
SMILES: CCCCC/C=C\C/C=C\CCCCCCCCCCCC(=O)O[C@H](CO/C=C\CCCCCCCCCCCCCC)COP(=O)(O)OCCN [PE(p38:2)]

collision cross section (N2) ([1]; [M+H]+): 290 Å²
collision cross section (N2) ([1]; [M+Na]+): 291.1 Å²
SMILES: CCCCC/C=C\C/C=C\CCCCCCCCCC(=O)O[C@H](CO/C=C\CCCCCCCCCCCCCCCCCC)COP(=O)(O)OCCN [PE(p40:2)]

collision cross section (N2) ([1]; [M+H]+): 283.5 Å²
collision cross section (N2) ([1]; [M+Na]+): 286.8 Å²
collision cross section (N2) ([1]; [M-H]-): 274.4 Å²
SMILES: CC/C=C\C/C=C\C/C=C\C/C=C\C/C=C\C/C=C\CCC(=O)O[C@H](CO/C=C\CCCCCCCCCCCCCCCC)COP(=O)(O)OCCN [PE(p40:6)]

collision cross section (N2) ([1]; [M+H]+): 283 Å²
collision cross section (N2) ([1]; [M+Na]+): 281 Å²
SMILES: CC/C=C\C/C=C\C/C=C\C/C=C\C/C=C\C/C=C\CCC(=O)O[C@H](CO/C=C\CCCCCC/C=C\CCCCCCCC)COP(=O)(O)OCCN [PE(p40:7)]

collision cross section (N2) ([1]; [M+Na]+): 277.8 Å²
SMILES: CCCCC/C=C\C/C=C\C/C=C\C/C=C\CCCC(=O)OC[C@H](COP(=O)(O)OC[C@@H](O)CO)OC(=O)CCCCCCC/C=C\CCCCCC [PG(36:5)]

collision cross section (N2) ([1]; [M-H]-): 283.7 Å²
SMILES: CCCCC/C=C\C/C=C\C/C=C\CCCCCCC(=O)OC[C@H](COP(=O)(O)OC[C@@H](O)CO)OC(=O)CCCCCCCCC/C=C\CCCCCCCC [PG(40:4)]

collision cross section (N2) ([1]; [M+Na]+): 298.6 Å²
SMILES: CCCCCCCCCCCCCCCCCCC(=O)OC[C@H](COP(=O)(O)O[C@H]1C(O)C(O)C(O)[C@@H](O)C1O)OC(=O)CCCCCCCCCCCCCCCC (stereo not given in full) [PI(36:0)]

collision cross section (N2) ([1]; [M+Na]+): 298.8 Å²
SMILES: CCCCC/C=C\C/C=C\C/C=C\C/C=C\CCCC(=O)O[C@H](COC(=O)CCCCCC/C=C\C/C=C\C/C=C\CCCCC)COP(=O)(O)O[C@H]1C(O)C(O)C(O)[C@@H](O)C1O (stereo not given in full) [PI(40:7)]

collision cross section (N2) ([1]; [M+Na]+): 296.8 Å²
SMILES: CC/C=C\C/C=C\C/C=C\C/C=C\CCCCC(=O)OC[C@H](COP(=O)(O)O[C@H]1C(O)C(O)C(O)[C@@H](O)C1O)OC(=O)CCCCC/C=C\C/C=C\C/C=C\C/C=C\CCCCC (stereo not given in full) [PI(40:8)]

collision cross section (N2) ([1]; [M+H-H2O]+): 296.4 Å²
SMILES: CCCCCCCC/C=C\CCCCCCCC(=O)OC[C@H](COP(=O)(O)O[C@H]1C(O)C(O)C(O)[C@@H](OP(=O)(O)O)C1O)OC(=O)CCCCCCCCCCCCCCCCC (stereo not given in full) [PIP(36:1)]

collision cross section (N2) ([1]; [M+H-H2O]+): 292.7 Å²
SMILES: CCCCC/C=C\C/C=C\CCCCCCCC(=O)O[C@H](COC(=O)CCCCCCC/C=C\CCCCCCCC)COP(=O)(O)O[C@H]1C(O)C(O)C(O)[C@@H](OP(=O)(O)O)C1O (stereo not given in full) [PIP(36:3)]

collision cross section (N2) ([1]; [M+H-H2O]+): 300.5 Å²
SMILES: CCCCC/C=C\C/C=C\C/C=C\C/C=C\CCCC(=O)O[C@H](COC(=O)CCCCCCCCCCCCCCCCC)COP(=O)(O)O[C@H]1C(O)C(O)C(O)[C@@H](OP(=O)(O)O)C1O (stereo not given in full) [PIP(38:4)]

collision cross section (N2) ([3]; [M+2Na-H]+): 301.12 Å²
collision cross section (N2) ([3]; [M+H]+): 302.29 Å²
SMILES: CCCCCCCCCCCCCCCCCCCCCCC(=O)N[C@@H](COP(=O)([O-])OCC[N+](C)(C)C)[C@H](O)CCCCCCCCCCCCCCC [SM(41:00)]

collision cross section (N2) ([3]; [M+HCOO]-): 303.33 Å²
collision cross section (N2) ([3]; [M+H]+): 298.91 Å²
collision cross section (N2) ([3]; [M+Na]+): 296.38 Å²
SMILES: CCCCCCCCCCCCC=CC[C@@H](O)[C@H](COP(=O)([O-])OCC[N+](C)(C)C)NC(=O)CC=CCCCCCCCCCCCCCCCCCCC [SM(41:02)]

collision cross section (N2) ([3]; [M+HCOO]-): 304.85 Å²
collision cross section (N2) ([3]; [M+H]+): 299.58 Å²
collision cross section (N2) ([3]; [M+Na]+): 297.59 Å²
SMILES: CCCCCCCCCCCCC=CC[C@@H](O)[C@H](COP(=O)([O-])OCC[N+](C)(C)C)NC(=O)CC=CCC=CCCCCCCCCCCCCCCCCC [SM(42:03)]

collision cross section (N2) ([3]; [M+H]+): 306.91 Å²
collision cross section (N2) ([3]; [M+Na]+): 304.16 Å²
SMILES: CCCCCCCCCCCCC=CC[C@@H](O)[C@H](COP(=O)([O-])OCC[N+](C)(C)C)NC(=O)CCCCCCCCCCCCCCCCCCCCCCCC [SM(43:01)]

collision cross section (N2) ([3]; [M+H]+): 304.47 Å²
collision cross section (N2) ([3]; [M+Na]+): 303.6 Å²
SMILES: CCCCCCCCCCCCC=CC[C@@H](O)[C@H](COP(=O)([O-])OCC[N+](C)(C)C)NC(=O)CC=CCCCCCCCCCCCCCCCCCCCCC [SM(43:02)]

collision cross section (N2) ([1]; [M+H]+): 283.2 Å²
SMILES: CCCCCCCCCCCCC=CC[C@@H](O)[C@H](COP(=O)([O-])OCC[N+](C)(C)C)NC(=O)CC=CCCCCCCCCCCCCCC [SM(d18:1/18:1)]

collision cross section (N2) ([1]; [M+H]+): 297.1 Å²
SMILES: CCCCCCCCCCCCC=CC[C@@H](O)[C@H](COP(=O)([O-])OCC[N+](C)(C)C)NC(=O)CCCCCCCCCCCCCCCCCCCCC [SM(d18:1/22:0)]
